#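 Each compound was tested at five concentrations against cells in 96-well plates for 48 hours. The concentration for full growth arrest is given as TGI.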
# Assays:
# Experiment in all cases: DTP human tumour cell line panel, 48 h
# [1] = system: COLO 205 colon
# [2] = system: K-562 leukemia
# [3] = system: SF-295 CNS
# [4] = system: SF-539 CNS
# [5] = system: SN12C renal
# [6] = system: XF 498 CNS
# [7] = system: RXF 393 renal
# [8] = system: NCI-H226 lung
# [9] = system: OVCAR-5 ovarian
# [10] = system: EKVX NSCLC
# [11] = system: A498 renal
# [12] = system: UO-31 renal
# [13] = system: KM12 colon
# [14] = system: HT29 colon
# [15] = system: HCT-15 colon
# [16] = system: OVCAR-3 ovarian
# [17] = system: ACHN renal
# [18] = system: DMS 273 small cell lung
# [19] = system: SW-620 colon
# [20] = system: RXF-631 renal
# [21] = system: SNB-19 CNS
# [22] = system: SK-MEL-5 melanoma
# [23] = system: HL-60(TB) leukemia
# [24] = system: U251 CNS
# [25] = system: SK-MEL-28 melanoma
# [26] = system: CCRF-CEM leukemia
# [27] = system: IGROV1 ovarian
# [28] = system: HOP-92 NSCLC
# [29] = system: M19-MEL melanoma
# [30] = system: 786-0 renal
# [31] = system: HOP-62 NSCLC
# [32] = system: NCI-H522 lung
# [33] = system: NCI-H23 lung
# [34] = system: M14 melanoma
# [35] = system: NCI-H460 lung
# [36] = system: SR leukemia
# [37] = system: TK-10 renal
# [38] = system: CAKI-1 renal
# [39] = system: RPMI-8226 leukemia
# [40] = system: HCC-2998 colon
# [41] = system: LOX IMVI melanoma
# [42] = system: SF-268 CNS
# [43] = system: SK-OV-3 ovarian
# [44] = system: DMS 114 small cell lung
# [45] = system: A549 NSCLC
# [46] = system: MALME-3M melanoma
# [47] = system: MOLT-4 leukemia
# [48] = system: DLD-1 colon
# [49] = system: SNB-75 CNS
# [50] = system: HCT-116 colon
# [51] = system: KM20L2 colon
# [52] = system: OVCAR-4 ovarian
# [53] = system: LXFL 529 NSCLC
# [54] = system: SNB-78 CNS
# [55] = system: UACC-257 melanoma
# [56] = system: UACC-62 melanoma
# [57] = system: OVCAR-8 ovarian
structure (smiles),measurement,setting,value
CC(C)C(CCl)NC(=O)c1cccc(C(=O)N[C@H](CCl)C(C)C)n1 (stereo in doubt),TGI,[1],> 100 µM
same,TGI,[2],> 100 µM
same,TGI,[3],> 100 µM
same,TGI,[4],> 100 µM
same,TGI,[5],> 100 µM
same,TGI,[6],> 100 µM
same,TGI,[7],> 100 µM
same,TGI,[8],> 100 µM
same,TGI,[9],> 100 µM
same,TGI,[10],> 100 µM
same,TGI,[11],> 100 µM
same,TGI,[12],> 100 µM
same,TGI,[13],> 100 µM
same,TGI,[14],> 100 µM
same,TGI,[15],> 100 µM
same,TGI,[16],> 100 µM
same,TGI,[17],> 100 µM
same,TGI,[18],> 100 µM
same,TGI,[19],> 100 µM
same,TGI,[20],> 100 µM
same,TGI,[21],> 100 µM
same,TGI,[22],> 100 µM
same,TGI,[23],> 100 µM
same,TGI,[24],> 100 µM
same,TGI,[25],> 100 µM
same,TGI,[26],> 100 µM
same,TGI,[27],> 100 µM
same,TGI,[28],> 100 µM
same,TGI,[29],> 100 µM
same,TGI,[30],> 100 µM
same,TGI,[31],> 100 µM
same,TGI,[32],> 100 µM
same,TGI,[33],> 100 µM
same,TGI,[34],> 100 µM
same,TGI,[35],> 100 µM
same,TGI,[36],> 100 µM
same,TGI,[37],> 100 µM
same,TGI,[38],> 100 µM
same,TGI,[39],> 100 µM
same,TGI,[40],> 100 µM
same,TGI,[41],> 100 µM
same,TGI,[42],> 100 µM
same,TGI,[43],> 100 µM
same,TGI,[44],> 100 µM
same,TGI,[45],> 100 µM
same,TGI,[46],> 100 µM
same,TGI,[47],> 100 µM
same,TGI,[48],> 100 µM
same,TGI,[49],> 100 µM
same,TGI,[50],> 100 µM
same,TGI,[51],> 100 µM
same,TGI,[52],> 100 µM
same,TGI,[53],> 100 µM
same,TGI,[54],> 100 µM
NC(=S)N/N=C(\CC1OC(=O)c2ccccc21)c1ccc(Cl)cc1 (configuration not stated),TGI,[1],98.8 µM
same,TGI,[2],> 100 µM
same,TGI,[3],> 100 µM
same,TGI,[4],44.9 µM
same,TGI,[5],> 100 µM
same,TGI,[6],> 100 µM
same,TGI,[7],49 µM
same,TGI,[8],53.3 µM
same,TGI,[9],> 100 µM
same,TGI,[12],84.9 µM
same,TGI,[13],52 µM
same,TGI,[14],65.9 µM
same,TGI,[15],> 100 µM
same,TGI,[16],> 100 µM
same,TGI,[17],> 100 µM
same,TGI,[18],> 100 µM
same,TGI,[19],> 100 µM
same,TGI,[20],74.1 µM
same,TGI,[21],> 100 µM
same,TGI,[23],> 100 µM
same,TGI,[24],73.6 µM
same,TGI,[25],> 100 µM
same,TGI,[27],> 100 µM
same,TGI,[28],91.7 µM
same,TGI,[29],66.1 µM
same,TGI,[30],> 100 µM
same,TGI,[31],46 µM
same,TGI,[32],63.8 µM
same,TGI,[33],57.7 µM
same,TGI,[34],> 100 µM
same,TGI,[35],> 100 µM
same,TGI,[36],> 100 µM
same,TGI,[37],> 100 µM
same,TGI,[38],99.2 µM
same,TGI,[55],> 100 µM
same,TGI,[39],> 100 µM
same,TGI,[40],48.6 µM
same,TGI,[41],62.8 µM
same,TGI,[42],> 100 µM
same,TGI,[43],> 100 µM
same,TGI,[56],47.2 µM
same,TGI,[44],75 µM
same,TGI,[45],> 100 µM
same,TGI,[57],35.6 µM
same,TGI,[46],> 100 µM
same,TGI,[47],> 100 µM
same,TGI,[48],> 100 µM
same,TGI,[49],> 100 µM
same,TGI,[50],54.9 µM
same,TGI,[51],> 100 µM
same,TGI,[52],99 µM
same,TGI,[53],> 100 µM
same,TGI,[54],> 100 µM
